Tests used:
Details in all cases: treatment: drug + dasatinib (fixed dose, not stated); 5 days
CAKI-1 [1] = test: AUC of dose-response viability curve, drug + dasatinib, normalised to DMSO (arbitrary (AUC of normalised viability)); higher = less growth inhibition
Experimental: (§1)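 Primary HTS combination arm: 8 RCC cell lines treated with 8 doses (up to 10 uM) of each library drug plus a fixed dose of dasatinib (dose not stated) for 5 days; viability read by CellTiter-Glo and normalised to DMSO. GI50 was fitted with XLfit, AUC is the area under the dose-response curve, and minimum viability is the lowest fraction of DMSO viability across doses.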

ACHN [2] = test: as above
Experimental: as §1

UO-31 [3] = test: as above
Experimental: as §1

TK-10 [4] = test: as above
Experimental: as §1

786-O [5] = test: as above
Experimental: as §1

A498 [6] = test: as above
Experimental: as §1

769-P [7] = test: as above
Experimental: as §1

SN12C [8] = test: as above
Experimental: as §1

CAKI-1 [9] = test: GI50 of drug in presence of dasatinib; higher = less potent
Experimental: as §1

ACHN [10] = test: as above
Experimental: as §1

TK-10 [11] = test: as above
Experimental: as §1

786-O [12] = test: as above
Experimental: as §1

769-P [13] = test: as above
Experimental: as §1

SN12C [14] = test: as above
Experimental: as §1

CAKI-1 [15] = test: minimum viability across doses, drug + dasatinib, relative to DMSO (fraction); higher = less growth inhibition
Experimental: as §1

ACHN [16] = test: as above
Experimental: as §1

UO-31 [17] = test: as above
Experimental: as §1

TK-10 [18] = test: as above
Experimental: as §1

786-O [19] = test: as above
Experimental: as §1

A498 [20] = test: as above
Experimental: as §1

769-P [21] = test: as above
Experimental: as §1

SN12C [22] = test: as above
Experimental: as §1

UO-31 [23] = test: GI50 of drug in presence of dasatinib; higher = less potent
Experimental: as §1

A498 [24] = test: as above
Experimental: as §1

SMILES | AUC of dose-response viability curve (CAKI-1 [1]) | AUC of dose-response viability curve (ACHN [2]) | AUC of dose-response viability curve (UO-31 [3]) | AUC of dose-response viability curve (TK-10 [4]) | AUC of dose-response viability curve (786-O [5]) | AUC of dose-response viability curve (A498 [6]) | AUC of dose-response viability curve (769-P [7]) | AUC of dose-response viability curve (SN12C [8]) | GI50 of drug (CAKI-1 [9]) [µM] | GI50 of drug (ACHN [10]) [µM] | GI50 of drug (TK-10 [11]) [µM] | GI50 of drug (786-O [12]) [µM] | GI50 of drug (769-P [13]) [µM] | GI50 of drug (SN12C [14]) [µM] | minimum viability across doses (CAKI-1 [15]) | minimum viability across doses (ACHN [16]) | minimum viability across doses (UO-31 [17]) | minimum viability across doses (TK-10 [18]) | minimum viability across doses (786-O [19]) | minimum viability across doses (A498 [20]) | minimum viability across doses (769-P [21]) | minimum viability across doses (SN12C [22]) | GI50 of drug (UO-31 [23]) [µM] | GI50 of drug (A498 [24]) [µM]
Cc1cc(C(=O)NOCCO)c(Nc2ccc(I)cc2F)n(C)c1=O [AZD8330] + Cc1nc(Nc2ncc(C(=O)Nc3c(C)cccc3Cl)s2)cc(N2CCN(CCO)CC2)n1 [dasatinib] | 1.21 | 0.912 | 1.9 | 1.64 | 1.67 | 1.77 | 1.49 | 1.5 | 0.0565 | < 0.003 | 0.108 | 0.0545 | 0.0694 | 0.0601 | 0.102 | 0.18 | 0.0965 | 0.262 | 0.323 | 0.318 | 0.219 | 0.212 |  | 
CC(C)(O)CC(=O)NCCn1ccc2ncnc(Nc3ccc(Oc4cccc(C(F)(F)F)c4)c(Cl)c3)c21 [TAK-285] + Cc1nc(Nc2ncc(C(=O)Nc3c(C)cccc3Cl)s2)cc(N2CCN(CCO)CC2)n1 [dasatinib] | 2.15 | 1.28 | 3.97 | 1.99 | 1.8 | 3.25 | 2.18 | 2.44 | 2.35 | 0.0127 | 0.568 |  | 1.7 | > 10 | 0.311 | 0.172 | 0.224 | 0.346 | 0.338 | 0.83 | 0.22 | 0.556 | 6.24 | > 10
Cn1cnc2c(F)c(Nc3ccc(Br)cc3Cl)c(C(=O)NOCCO)cc21 [AZD6244 (Selumetinib)] + Cc1nc(Nc2ncc(C(=O)Nc3c(C)cccc3Cl)s2)cc(N2CCN(CCO)CC2)n1 [dasatinib] | 1.77 | 1.64 | 2.32 | 2.38 | 2.26 | 2.11 | 2.1 | 1.84 | 0.646 | 0.0832 | 3.54 | 1.66 | 1.2 | 1.07 | 0.129 | 0.343 | 0.143 | 0.477 | 0.507 | 0.301 | 0.294 | 0.0911 |  | 
Cc1cnc(NC(=O)Nc2cc(Br)c(C)cc2OC[C@@H]2CNCCO2)cn1 + Cc1nc(Nc2ncc(C(=O)Nc3c(C)cccc3Cl)s2)cc(N2CCN(CCO)CC2)n1 [dasatinib] | 1.71 | 1.21 | 3.07 | 2.01 | 1.43 | 2.99 | 1.71 | 2.27 | 0.388 | 0.0369 | 0.559 | 0.172 |  | 2.09 | 0.0829 | 0.0412 | 0.00521 | 0.162 | 0.00234 | 0.0633 | 0.0737 | 0.113 | 0.833 | 2.12
